Measured values published in patent US11753386B2, “Processes for preparing a MDM2 inhibitor” (Amgen, Inc., priority 2018, dated 2023).
Blank lines part the entries; values can stand above or below the molecule they belong to.

Key:
Assay type in all cases: physicochemical
[1] = Solubility in acetonitrile/water (9/1 volume ratio); details: organic solvent or mixture, 10° C.
[2] = Supernatant concentration at end of crystallization; details: 20° C.
Description: Cooling to 20° C. in 2 hours prompts another 60% of the material to crystallize. Four volumes of heptane are subsequently added to lower the supernatant concentration to approximately 5 mg/mL in preparation for batch filtration.
A curve showing solubility values at different time points in the crystallization process is represented in FIG. 16. […] One volume of water is subsequently added to lower the supernatant concentration to approximately 5 mg/mL in preparation for a rapid batch filtration. Three water washings (3×10 volumes) were conducted to minimize the presence of residual acetic acid in the isolated material.

[3] = Particle size distribution pre and post dry-milling
[4] = Equilibrium solubility measurements for DHO in various solvents; details: thermodynamic from solid, 20° C.
Description: Equilibrium solubility measurements were gathered for DHO in various solvents. It was observed that all values obtained were above 20 mg/mL at 20° C. (including heptane) except for water (<0.1 mg/mL), which was thus selected as an anti-solvent. […] Using this protocol, crystalline DHO was isolated in 88% yield from DLAC in a >98 LC area % (Scheme 9).

[5] = milled (Pallman Universal Mill)

SMILES: C=CC[C@@](C)(C[C@H](c1cccc(Cl)c1)[C@@H](O)c1ccc(Cl)cc1)C1=N[C@@H](C(C)C)CO1 [DHO, (1R,2R,4S)-2-(3-chlorophenyl)-1-(4-chlorophenyl)-4-((S)-4-isopropyl-4,5-dihydrooxazol-2-yl)-4-methylhept-6-en-1-ol]
solubility thermodynamic ([4]; organic solvent or mixture, various solvents (including heptane) except water): > 20 mg/mL
solubility thermodynamic ([4]; water): < 0.1 mg/mL

SMILES: C=CC[C@@]1(C)C[C@H](c2cccc(Cl)c2)[C@@H](c2ccc(Cl)cc2)N([C@H](CS(=O)(=O)C(C)C)C(C)C)C1=O [SUL, (3S,5R,6S)-3-allyl-5-(3-chlorophenyl)-6-(4-chlorophenyl)-1-((S)-1-(isopropylsulfonyl)-3-methylbutan-2-yl)-3-methylpiperidin-2-one]
solubility [1]: 25 mg/mL

More lines, now with the values ahead:

solubility [1]: 21 mg/mL
SMILES: CC(C)[C@@H](CS(=O)(=O)C(C)C)N1C(=O)[C@@](C)(CC=O)C[C@H](c2cccc(Cl)c2)C1c1ccc(Cl)cc1 (stereo partly drawn) [ALD]

Supernatant concentration ([2]; isopropyl acetate (4 volumes) / heptane (4 volumes)): approximately 5 mg/mL
SMILES: CC(C)[C@@H](CS(=O)(=O)C(C)C)N1C(=O)[C@@](C)(CC(=O)O)CC(c2cccc(Cl)c2)C1c1ccc(Cl)cc1 (stereo partly drawn) [Compound 232-DAB]

d10 [3, 5]: 3.2 μm
d50 [3, 5]: 19.1 μm
d90 [3, 5]: 43.7 μm
d10 ([3]; unmilled): 14.6 μm
d50 ([3]; unmilled): 42.5 μm
d90 ([3]; unmilled): 102 μm
Supernatant concentration ([2]; acetic acid (6.6 volumes) / water (4.4 + 1 volumes)): approximately 5 mg/mL
SMILES: CC(C)[C@@H](CS(=O)(=O)C(C)C)N1C(=O)[C@@](C)(CC(=O)O)C[C@H](c2cccc(Cl)c2)[C@H]1c1ccc(Cl)cc1 [Compound A, 2-((3R,5R,6S)-5-(3-chlorophenyl)-6-(4-chlorophenyl)-1-((S)-1-(isopropylsulfonyl)-3-methylbutan-2-yl)-3-methyl-2-oxopiperidin-3-yl)acetic acid]
